Here are results for four molecules from patent US9334279B2, “Hepatitis C virus inhibitors” (BRISTOL-MYERS SQUIBB COMPANY, priority 2012, dated 2016).

As a reminder, the EC50 is the midpoint of the concentration-response curve.

The test system of one test is HCV GT1a(H77) replicon. In words: HCV replicon luciferase reporter assay, genotype 1a. The following applies: Hepatitis C virus, 72 h, HUH-7 cells, Renilla luciferase, 3 days incubation, read-out: LE_1a (EC50, range). It counts as cell-based, HCV genotype 1a. An excerpt: A stable HCV GT1a(H77) replicon luciferase reporter cell line (Yanagi M, Purcell RH, Emerson S U, et al. Transcripts from a single full-length cDNA clone of hepatitis C virus are infectious when directly transfected into the liver of a chimpanzee. Proc Natl Acad Sci USA 1997; 94(16):8738-8743) was generated as described previously for the genotype 1b(Con1) replicon luciferase cell line. The replicon construct was modified by introducing mutations into the genes encoding the NS3 helicase domain (proline replaced by leucine at position 1496) and NS5A (serine to isoleucine at position 2204) to improve replication in cell culture.
(§1) HCV replicon luciferase assays were developed to monitor the inhibitory effects of compounds described in the disclosure on HCV genotypes 1a and 1b viral replication. HUH-7 cells, constitutively expressing the HCV replicon, were grown in Dulbecco's Modified Eagle Media (DMEM) (Gibco-BRL) containing 10% Fetal calf serum (FCS) (Sigma) and 1 mg/mL G418 (Gibco-BRL). Compounds were serially diluted 3 folds in DMSO for a twenty-point titration and subsequently transferred to sterile 384-well tissue-culture treated plates (Corning cat #3571). The plates were then seeded with 50 μL of cells at a density of 3.0×10^3 cells/well in DMEM containing 4% FCS (final DMSO concentration at 0.5%). After 3 days incubation at 37° C., cells were analyzed for Renilla Luciferase activity using the EnduRen as substrate (Promega cat #E6485). The EnduRen substrate was diluted in DMEM and then added to the plates to a final concentration of 7.5 μM. The plates were incubated for 2 hrs at 37° C. and then read immediately for 30 seconds with Viewlux Imager (PerkinElmer) using a luminescence program. To assess cytotoxicity of compounds, CC50 values were generated by multiplexing the EnduRen-containing plates with Cell Titer-Blue (Promega, cat #G8082). Cell-Titer Blue (3 μL) was added to each well and incubated for 8 hrs at 37° C. The fluorescence signal from each well was read, with an excitation wavelength at 525/10 nm and an emission wavelength of 598/10 nm, using the Viewlux Imager.
(§2) The EC50 values for compounds were calculated by using a four-parameter logistic equation: y=A+[…])/(1+((C/x)^D))), where A and B denotes minimal and maximal % inhibition, respectively, C is the EC50, D is the hill slope and x represents compound concentration.
On the technique in general: A replicon is a self-replicating genome or part of one, used to study replication in cells.

The subject of a further test is HCV GT1b(Con1) replicon. Nature of the test: HCV replicon luciferase reporter assay, genotype 1b. It is filed as cell-based, HCV genotype 1b. The following applies: Hepatitis C virus, 72 h, HUH-7 cells, Renilla luciferase, 3 days incubation, read-out: LE_1b (EC50, range).
Excerpt: An HCV GT1b(Con1) replicon cell system was established as described by Lohmann V, Korner F, Koch J, Herian U, Theilmann L, Bartenschlager R., Science 285(5424):110-3 (1999) and modified to introduce a luciferase reporter (Krieger N, Lohmann V, and Bartenschlager R, J. Virol. 75(10):4614-4624 (2001)). cDNA encoding a humanized form of the Renilla luciferase gene, and a linker sequence fused directly to the 3′-end of the luciferase gene were introduced into the replicon construct using an Asc1 restriction site located in core, directly upstream of the neomycin marker gene. The adaptive mutation at position 1179 (serine to isoleucine) was also introduced (Blight K J, Kolykhalov, A A, Rice, C M, Science 290(5498):1972-1974). A stable cell line constitutively expressing this HCV replicon construct was generated by first linearizing plasmid DNAs with ScaI. RNA transcripts were synthesized in vitro using the T7 MegaScript transcription kit (Ambion, Austin, Tex.) according to manufacturer's directions. In vitro transcripts of the cDNA were transfected into the human hepatoma cell line, HUH-7. […] Resulting cell lines were characterized for positive and negative strand RNA production and protein production over time.
as §1, §2

With `CC(C)Oc1ccc(-c2cc(O[C@@H]3C[C@H]4C(=O)N[C@]5(C(=O)NS(=O)(=O)C6(C)CC6)C[C@H]5/C=C\CC[C@@H](C)C[C@@H](C)[C@H](NC(=O)OC(C)(C)C(F)(F)F)C(=O)N4C3)cc(-n3cccn3)n2)cc1` [Compound 1013, 1,1,1-trifluoro-2-methylpropan-2-yl ((2R,6S,7R,9R,13aS,14aR,16aS,Z)-2-((2-(4-isopropoxyphenyl)-6-(1H-pyrazol-1-yl)pyridin-4-yl)oxy)-7,9-dimethyl-14a-(((1-methylcyclopropyl)sulfonyl)carbamoyl)-5,16-dioxo-1,2,3,5,6,7,8,9,10,11,13a,14,14a,15,16,16a-hexadecahydrocyclopropa[e]pyrrolo[1,2-a][1,4]diazacyclopentadecin-6-yl)carbamate], the concentration giving a half-maximal response (EC50) in the test with HCV GT1a(H77) replicon and in the test on HCV GT1b(Con1) replicon was 1.01 to 5 nM throughout.

Regarding `CC(C)Oc1ccc(-c2cc(O[C@@H]3C[C@H]4C(=O)N[C@]5(C(=O)NS(=O)(=O)C6(C)CC6)C[C@H]5/C=C\CC[C@H](C)C[C@@H](C)[C@H](NC(=O)OC(C)(C)C(F)(F)F)C(=O)N4C3)cc(-n3cccn3)n2)cc1` [Compound 1014, 1,1,1-trifluoro-2-methylpropan-2-yl ((2R,6S,7R,9S,13aS,14aR,16aS,Z)-2-((2-(4-isopropoxyphenyl)-6-(1H-pyrazol-1-yl)pyridin-4-yl)oxy)-7,9-dimethyl-14a-(((1-methylcyclopropyl)sulfonyl)carbamoyl)-5,16-dioxo-1,2,3,5,6,7,8,9,10,11,13a,14,14a,15,16,16a-hexadecahydrocyclopropa[e]pyrrolo[1,2-a][1,4]diazacyclopentadecin-6-yl)carbamate], the results for the EC50 with HCV GT1a(H77) replicon and with HCV GT1b(Con1) replicon were 35 to 359 nM and 5.01 to 35 nM, respectively.

Regarding `Cc1cc(O[C@@H]2C[C@H]3C(=O)N[C@]4(C(=O)NS(=O)(=O)C5(C)CC5)C[C@H]4/C=C\CC[C@@H](C)C[C@@H](C)[C@H](NC(=O)OC(C)(C)C(F)(F)F)C(=O)N3C2)cc(-c2cncs2)n1` [Compound 1015, 1,1,1-trifluoro-2-methylpropan-2-yl ((2R,6S,7R,9R,13aS,14aR,16aS,Z)-7,9-dimethyl-2-((2-methyl-6-(thiazol-5-yl)pyridin-4-yl)oxy)-14a-(((1-methylcyclopropyl)sulfonyl)carbamoyl)-5,16-dioxo-1,2,3,5,6,7,8,9,10,11,13a,14,14a,15,16,16a-hexadecahydrocyclopropa[e]pyrrolo[1,2-a][1,4]diazacyclopentadecin-6-yl)carbamate], the EC50 with HCV GT1a(H77) replicon and in the test on HCV GT1b(Con1) replicon was 5.01 to 35 nM in each case.

On to `Cc1cc(O[C@@H]2C[C@H]3C(=O)N[C@]4(C(=O)NS(=O)(=O)C5(C)CC5)C[C@H]4/C=C\CC[C@H](C)C[C@@H](C)[C@H](NC(=O)OC(C)(C)C(F)(F)F)C(=O)N3C2)cc(-c2cncs2)n1` [Compound 1016, 1,1,1-trifluoro-2-methylpropan-2-yl ((2R,6S,7R,9S,13aS,14aR,16aS,Z)-7,9-dimethyl-2-((2-methyl-6-(thiazol-5-yl)pyridin-4-yl)oxy)-14a-(((1-methylcyclopropyl)sulfonyl)carbamoyl)-5,16-dioxo-1,2,3,5,6,7,8,9,10,11,13a,14,14a,15,16,16a-hexadecahydrocyclopropa[e]pyrrolo[1,2-a][1,4]diazacyclopentadecin-6-yl)carbamate], for which the 50% effective concentration (EC50) with HCV GT1a(H77) replicon and in the test with HCV GT1b(Con1) replicon was 35 to 359 nM throughout.
